Assay results from patent publication US8399683B2 (TetraLogic Pharmaceuticals, priority 2008, dated 2013).

Columns and labels:
cIAP-1 BIR-3 = cIAP-1 BIR-3 (Homo sapiens, UniProt Q13490); experiment: Fluorescence polarization binding affinity to cIAP-1 BIR-3 (competition with AbuRPF-K(5-Fam)-NH2); conditions: 5 nM labeled peptide, 40 nM BIR3, 15 min at RT, pH 7.5; reported as ranges; read-out: KD (c-IAP-1 BIR3)
Experimental: (§1) The binding affinities of the compounds are reported as a KD value (μM). Briefly, various concentrations of test peptides were mixed with 5 nM of the fluorescently labeled peptide (i.e., a mutated N-terminal Smac peptide—AbuRPF-K(5-Fam)-NH2) and 40 nM of the respective IAP BIR3 for 15 min at RT in […] of 0.1M Potassium Phosphate buffer, pH 7.5 containing […] bovine g-globulin. Following incubation, the polarization values (mP) were measured on a Victor2V (available from PerkinElmer Life Sciences) using a 485 nm excitation filter and a 520 nm emission filter. The reported KD values are supplied as ranges (A=<0.1 μM, B=0.1 μM to 1 μM, C>1 μM to 10 μM, D=>10 μM).

XIAP BIR-3 = target: T1, XIAP BIR-3 (Homo sapiens, UniProt P98170); experiment: Fluorescence polarization binding affinity to XIAP BIR-3 (competition with AbuRPF-K(5-Fam)-NH2); conditions: 5 nM labeled peptide, 40 nM BIR3, 15 min at RT, pH 7.5; reported as ranges
T1 construct: 40 nM of the respective IAP BIR3
T1 sequence (P98170 241-356 limits assumed): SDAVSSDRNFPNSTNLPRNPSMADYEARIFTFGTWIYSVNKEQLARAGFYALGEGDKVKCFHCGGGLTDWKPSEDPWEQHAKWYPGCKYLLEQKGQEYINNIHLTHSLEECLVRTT
Experimental: as §1

SK-OV-3 cells = experiment: Growth inhibition of ovarian cancer cell line SK-OV-3 (MTT assay, cell survival); type: cell-based; conditions: Homo sapiens, drug concentration that results in 50% cell survival, 72 hrs incubation, reported as ranges
Experimental: Compounds of the invention also were tested for their ability to inhibit the growth of an ovarian cancer cell line, SK-OV-3. A known assay previously used for measuring cell growth (as described in Hansen, M. B., Nielsen, S. E., and Berg, K. (1989) J. Immunol. Methods 119, 203-210 and incorporated herein by reference in its entirety) was used. Briefly, SK-OV-3 cells are seeded in 96-well plates in McCoy's medium containing 10% fetal bovine serum albumin (5,000 per well) and incubated overnight at 37° C. The next day, test compounds are added at various concentrations (0.003-10 μM) and the plates are incubated at 37° C. for an additional 72 hrs. This incubation time was considered to be optimal for measuring inhibitory effects of the different compounds tested. 50 microliters of 5 mg/mL MTT reagent is added to each well and the plates are incubated at 37° C. for another three (3) hours. At the end of the three (3) hour incubation period, 50 microliters of DMSO is added to each well to dissolve cells and the optical density (OD) of the wells is measured with a microplate reader (Victor^2 1420, Wallac, Finland) at 535 nm. Cell survival (CS) was calculated using the following equation: CS=(OD treated well/mean OD control wells)×100%.
The CC50 (reported in the following tables), is defined as the drug concentration that results in 50% cell survival (CS), and is derived by calculating the point where the dose-response curve crosses the 50% CS point using GraphPad Prism. The reported CC50 values are supplied as ranges (A=<0.1 μM, B=0.1 μM to 1 μM, C=>1 μM to 10 μM, D=>10 μM).

Sequence of cIAP-1 BIR-3 (Q13490 266-352 limits assumed): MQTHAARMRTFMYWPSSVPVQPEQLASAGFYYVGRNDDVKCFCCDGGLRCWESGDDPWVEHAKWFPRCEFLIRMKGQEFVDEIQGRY

Kd (cIAP-1 BIR-3) [nM]	Kd (XIAP BIR-3) [nM]	SMILES	CC50 (SK-OV-3 cells) [nM]
100 to 1000	> 10000	CC[C@H](NC(=O)[C@H](C)NC)C(=O)N1CC[C@@H]2[C@H]1[C@H](c1c[nH]c3cc(F)ccc13)CN2Cc1ccccc1 [Example 106]	1000 to 10000
< 100	100 to 1000	CN[C@@H](C)C(=O)N[C@H](C(=O)N1C[C@@H](O)[C@H]2NC[C@H](c3c[nH]c4cc(F)ccc34)[C@H]21)C1CCCCC1 [Example 85]	100 to 1000
< 100	< 100	CN[C@@H](C)C(=O)N[C@@H](CO)C(=O)N1CC[C@@H]2[C@H]1[C@@H](c1c[nH]c3cc(F)ccc13)CN2c1ncccn1 [Example 80, N-{2-[6-(6-Fluoro-1H-indol-3-yl)-4-pyrimidin-2-yl-hexahydro-pyrrolo[3,2-b]pyrrol-1-yl]-1-hydroxymethyl-2-oxo-ethyl}-2-methylamino-propionamide]	< 100
< 100	< 100	CC[C@H](NC(=O)[C@H](C)NC)C(=O)N1CC[C@@H]2[C@H]1[C@@H](c1c[nH]c3ccc(F)cc13)CN2C(C)=O [Example 67, N-{1-[4-Acetyl-6-(5-fluoro-1H-indol-3-yl)-hexahydro-pyrrolo[3,2-b]pyrrole-1-carbonyl]-propyl}-2-methylamino-propionamide]	100 to 1000
100 to 1000	1000 to 10000	CN[C@@H](C)C(=O)N[C@H](C(=O)N1CC[C@@H]2[C@H]1[C@@H](c1c[nH]c3ccccc13)CN2C(C)C)C1CCCCC1 [Example 98]	100 to 1000
< 100	< 100	CC[C@H](NC(=O)[C@H](C)NC)C(=O)N1CC[C@@H]2[C@H]1[C@@H](c1c[nH]c3cc(F)ccc13)CN2C(C)=O [Example 60, N-{1-[4-Acetyl-6-(6-fluoro-1H-indol-3-yl)-hexahydro-pyrrolo[3,2-b]pyrrole-1-carbonyl]-propyl}-2-methylamino-propionamide]	< 100
< 100	< 100	CN[C@@H](C)C(=O)N[C@H](C(=O)N1CC[C@@H]2[C@H]1[C@@H](c1c[nH]c3cc(F)ccc13)CN2c1ncccn1)[C@@H](C)OC [Example 83, N-{1-[6-(6-Fluoro-1H-indol-3-yl)-4-pyrimidin-2-yl-hexahydro-pyrrolo[3,2-b]pyrrole-1-carbonyl]-2-methoxy-propyl}-2-methylamino-propionamide]	< 100
< 100	< 100	CN[C@@H](C)C(=O)N[C@@H](CO)C(=O)N1CC[C@@H]2[C@H]1[C@@H](c1c[nH]c3cc(F)ccc13)CN2S(C)(=O)=O [Example 52, N-{2-[6-(6-Fluoro-1H-indol-3-yl)-4-methanesulfonyl-hexahydro-pyrrolo[3,2-b]pyrrol-1-yl]-1-hydroxymethyl-2-oxo-ethyl}-2-methylamino-propionamide]	1000 to 10000
< 100	< 100	CN[C@@H](C)C(=O)N[C@H](C(=O)N1CC[C@@H]2[C@H]1[C@@H](c1c[nH]c3cc(F)ccc13)CN2c1nccc(Cl)n1)C1CCCCC1 [Example 76, N-{2-[4-(4-Chloro-pyrimidin-2-yl)-6-(6-fluoro-1H-indol-3-yl)-hexahydro-pyrrolo[3,2-b]pyrrol-1-yl]-1-cyclohexyl-2-oxo-ethyl}-2-methylamino-propionamide]	< 100
< 100	< 100	CN[C@@H](C)C(=O)N[C@H](C(=O)N1CC[C@@H]2[C@H]1[C@@H](c1c[nH]c3cc(F)ccc13)CN2Cc1ccccc1)[C@@H](C)OC [Example 100]	< 100
< 100	< 100	C[C@H](N)C(=O)N[C@H](C(=O)N1CC[C@H]2NC[C@H](c3cn(Cc4ccccc4)c4cc(F)ccc34)[C@H]21)C1CCCCC1 [Example 92]	1000 to 10000
< 100	< 100	CO[C@H](C)[C@H](NC(=O)[C@H](C)N)C(=O)N1CC[C@H]2NC[C@H](c3cn(Cc4ccccc4)c4cc(F)ccc34)[C@H]21 [Example 93]	1000 to 10000

The remaining lines, values behind:

SMILES	Kd (cIAP-1 BIR-3) [nM]	Kd (XIAP BIR-3) [nM]	CC50 (SK-OV-3 cells) [nM]
CN[C@@H](C)C(=O)N[C@H](C(=O)N1CC[C@@H]2[C@H]1[C@@H](c1c[nH]c3cc(F)ccc13)CN2S(C)(=O)=O)C(C)(C)C [Example 50, N-{1-[6-(6-Fluoro-1H-indol-3-yl)-4-methanesulfonyl-hexahydro-pyrrolo[3,2-b]pyrrole-1-carbonyl]-2,2-dimethyl-propyl}-2-methylamino-propionamide]	< 100	< 100	< 100
CN[C@@H](C)C(=O)N[C@H](C(=O)N1CC[C@@H]2[C@H]1[C@H](c1c[nH]c3cc(F)ccc13)CN2S(C)(=O)=O)C(C)(C)C [Example 49, N-{1-[6-(6-Fluoro-1H-indol-3-yl)-4-methanesulfonyl-hexahydro-pyrrolo[3,2-b]pyrrole-1-carbonyl]-2,2-dimethyl-propyl}-2-methylamino-propionamide]	100 to 1000	1000 to 10000	> 10000
CC[C@H](NC(=O)[C@H](C)NC)C(=O)N1CC[C@H]2NC[C@H](c3c[nH]c4cc(F)ccc34)[C@H]21 [Example 29, N-{1-[6-(6-Fluoro-1H-indol-3-yl)-hexahydro-pyrrolo[3,2-b]pyrrole-1-carbonyl]-propyl}-2-methylamino-propionamide]	< 100	< 100	100 to 1000
CN[C@@H](C)C(=O)N[C@H](C(=O)N1CC[C@H]2NC[C@H](c3c[nH]c4ccccc34)[C@H]21)C1CCCCC1 [Example 2, N-{1S-Cyclohexyl-2-[(3aR,6aR)-6S-(1H-indol-3-yl)-hexahydro-pyrrolo[3,2-b]pyrrol-1-yl]-2-oxo-ethyl}-2S-methylamino-propionamide]	< 100	< 100	100 to 1000
CC[C@H](NC(=O)[C@H](C)NC)C(=O)N1CC[C@@H]2[C@H]1[C@@H](c1c[nH]c3cc(F)ccc13)CN2C1CCCC1 [Example 6]	100 to 1000	100 to 1000	100 to 1000
CN[C@@H](C)C(=O)N[C@H](C(=O)N1CC[C@H]2NC[C@@H](c3c[nH]c4ccccc34)[C@H]21)C1CCCCC1 [Example 1, N-{1S-Cyclohexyl-2-[(3aR,6aR)-6R-(1H-indol-3-yl)-hexahydro-pyrrolo[3,2-b]pyrrol-1-yl]-2-oxo-ethyl}-2S-methylamino-propionamide]	> 10000	> 10000	1000 to 10000
CN[C@@H](C)C(=O)N[C@H](C(=O)N1CC[C@@H]2[C@H]1[C@H](c1c[nH]c3cc(F)ccc13)CN2C1CCCC1)C(C)C [Example 7, N-{1-[4-Cyclopentyl-6-(6-fluoro-1H-indol-3-yl)-hexahydro-pyrrolo[3,2-b]pyrrole-1-carbonyl]-2-methyl-propyl}-2-methylamino-propionamide]	100 to 1000	1000 to 10000	1000 to 10000
CN[C@@H](C)C(=O)N[C@H](C(=O)N1CC[C@H]2NC[C@H](c3c[nH]c4cc(F)ccc34)[C@H]21)C(C)C [Example 30, N-{1-[6-(6-Fluoro-1H-indol-3-yl)-hexahydro-pyrrolo[3,2-b]pyrrole-1-carbonyl]-2-methyl-propyl}-2-methylamino-propionamide]	< 100	< 100	< 100
CN[C@@H](C)C(=O)N[C@@H](CO)C(=O)N1CC[C@@H]2[C@H]1[C@H](c1c[nH]c3cc(F)ccc13)CN2C1CCCC1 [Example 10, N-{2-[4-Cyclopentyl-6-(6-fluoro-1H-indol-3-yl)-hexahydro-pyrrolo[3,2-b]pyrrol-1-yl]-1-hydroxymethyl-2-oxo-ethyl}-2-methylamino-propionamide]	100 to 1000	> 10000	1000 to 10000
CN[C@@H](C)C(=O)N[C@H](C(=O)N1CC[C@@H]2[C@H]1[C@@H](c1c[nH]c3cc(F)ccc13)CN2C(C)C)C1CCCCC1 [Example 19, N-{1-Cyclohexyl-2-[6-(6-fluoro-1H-indol-3-yl)-4-isopropyl-hexahydro-pyrrolo[3,2-b]pyrrol-1-yl]-2-oxo-ethyl}-2-methylamino-propionamide]	< 100	1000 to 10000	100 to 1000
